# Test results reported in patent EP1233943B1, “IONIZABLE INDOLINONE DERIVATIVES AND THEIR USE AS PTK LIGANDS” (Sugen, Inc., priority 1999, dated 2001).
# Like-named read-outs stand apart in the source and are kept apart here.
# Legend:
# in vivo [1] = details: mouse, in vivo, ip, 75 mg/kg/day
# Method: (§1) In most experiments, compound was administered daily.
# (§2) Tumor growth was measured using venier calipers.
# A375 (human melanoma) = assay: in vivo; details: 75 mg/kg/d IP in DMSO, dosed 3x/week; day 29; BALB/c nu/nu mice
# Method: as §1, §2
# SF763T (human glioma) = details: 75 mg/kg/d IP daily in DMSO; day 21; BALB/c nu/nu mice
# Method: (§3) SF763T, SF767T, and SKOV3TP5 were derived by implanting the parental cells SC into BALB/c nu/nu mice.
# (§4) For the SF763T and SF767T cell lines, two to five mL of appropriate medium was added to the slurry and the tumor pieces were further mechanically teased apart. […] Medium was changed every two to three days. After three to five passages, the antibiotic supplements were removed and the cells maintained in antibiotic-free medium.
# as §1, §2
# SF767T (human glioma) = details: 75 mg/kg/d IP daily in DMSO; day 21; BALB/c nu/nu mice
# Method: as §3, §4, §1, §2
# SKOV3TP5 (human ovarian) = details: 75 mg/kg/d IP daily in DMSO; day 25; BALB/c nu/nu mice
# Method: as §3
# For the SKOV3TP5 cells, fragments of resected tumors were injected SC into mice for in vivo passaging. This procedure was repeated five times before cells were returned to culture as described above.
# as §1, §2
# [2] = Subcutaneous xenograft model in athymic mice, A431; assay type: in vivo, human; details: mouse, in vivo, 100 mg/kg/day; 100 mg/kg/d IP daily in DMSO
# Method: as §1, §2
# A431 (human epidermal) = assay: Subcutaneous xenograft model in athymic mice, A431; assay type: in vivo; details: 100 mg/kg/d IP daily in DMSO; day 24; BALB/c nu/nu mice
# Method: as §1, §2
# in vivo [3] = details: mouse, in vivo, ip, 75 mg/kg/day; remark: listed apart in the source
# Method: as §1, §2
# [4] = tested on: EpH4-VEGF1 (murine epithelial); assay: in vivo; details: 75 mg/kg/d IP daily in DMSO; day 18; BALB/c nu/nu mice
# Method: as §1, §2
# [5] = Oral bioavailability of formulations in beagle dogs; assay type: in vivo; details: higher doses in fasted conditions
# Method: The formulation described below enhance the oral bioaviability of COMPOUND IV in beagle dogs, a preclinical absorption model.
# Both formulations contain 50 mg/gm of Pluronic F-68. The formulation at 50 mg/gm of COMPOUND IV contains 900 mgs of sesame oil and the one that contains 250 mg/gm of COMPOUND IV contains 700 mgs of sesame oil.
# AUC refers to the area under the curve of the plasma concentration time curve and represents oral bioavilability (BA). Higher AUC indicates higher BA.
# in vivo [6] = assay: in vivo
# Method: (§5) C6 cells were cultured in Ham's F-10 supplemented with 5% FBS and 2mM L-glutamine. […] All cell cultures were maintained at 37°C in a humidified atmosphere of 5-10% CO2.
# (§6) Tumor cell lines (0.6 - 10 x 10^6 cells/animal; n = 8-20 animals/group) were implanted SC in the hindflank region of 8-12 week old BALB/c nu/nu female mice.
# (§7) Tumor growth was measured using venier calipers. Tumor volumes were calculated as the product of length x width x height. Statistical analysis was carried out using Student's t-test.
# (§8) C6 cells were implanted SC into athymic mice on day zero. […] On Day 16, all Group 3 animals were humanely sacrificed due to tumor burden (mean tumor diameter approximately 1300 mm^3), and the growth of tumors in Groups 1 and 2 was monitored until the mean tumor burden of each group reached 1300 mm^3.
# (§9) Beginning one day post-implantation, compound (200 mg/kg/day in solution in a Labrasol®-containing vehicle) was administered to mice PO. Tumor growth was measured using venier calipers and tumor volumes were calculated as the product of length x width x height.
# Method for C6 (rat glioma): as §5, §6, §7, §8, §9
# Method for physchem: The solution was filtered, appropriate dilutions made and the concentration of the compound in the supernatant was analyzed by a reverse phase HPLC method.
structure (smiles),measurement,setting,value
"Cc1[nH]c(C=C2C(=O)Nc3ccccc32)c(C)c1CCC(=O)O [Example 1, 3-[2,4-dimethyl-5-(2-oxo-1,2-dihydro-indol-3-ylidenemethyl)-1H-pyrrol-3-yl]-propionic acid]",mortality,in vivo [1],0%
same,% Inhibition @ (day),A375 (human melanoma),56(29) %
same,% Inhibition @ (day),SF763T (human glioma),48 (21) %
same,% Inhibition @ (day),SF767T (human glioma),46 (21) %
same,% Inhibition @ (day),SKOV3TP5 (human ovarian),9 (25) %
same,mortality,[2],12.5%
same,% Inhibition @ (day),A431 (human epidermal),84 (24) %
same,mortality,in vivo [3],0%
same,% Inhibition @ (day),[4],34 (18) %
same,bioavailability,[5],low bioavailability
same,% Inhibition @ (day),"C6 (rat glioma); 100 mg/kg/d IP daily in DMSO, day 18, BALB/c nu/nu mice",65 (18) %
same,% Inhibition (at day),"C6 (rat glioma); IP 25 mg/kg Daily X 5, day 18",1(18) %
same,% Inhibition (at day),"C6 (rat glioma); IP 50 mg/kg Daily X 5, day 18",68 (18) %
same,% Inhibition (at day),"C6 (rat glioma); IP 50 mg/kg Daily, day 18",27 (18) %
same,% Inhibition (at day),"C6 (rat glioma); IP 50 mg/kg Three times weekly, day 18",25 (18) %
same,% Inhibition (at day),"C6 (rat glioma); IP 50 mg/kg Twice weekly, day 19",36 (19) %
same,% Inhibition (at day),"C6 (rat glioma); IP 75 mg/kg Daily X 5, day 18",54 (18) %
same,% Inhibition (at day),"C6 (rat glioma); IP 75 mg/kg Daily, day 18",53 (18) %
same,% Inhibition (at day),"C6 (rat glioma); IP 75 mg/kg Three times weekly, day 18",29 (18) %
same,% Inhibition (at day),"C6 (rat glioma); IP 75 mg/kg Twice weekly, day 19",26 (19) %
same,efficacy on established tumors,"C6 (rat glioma); IP 75 mg/kg/day from Day 7, when measurable tumors were present",efficacious
same,% Inhibition (at day),"C6 (rat glioma); IP 100 mg/kg Daily X 5 followed by Once weekly, day 15",42(15) %
same,% Inhibition (at day),"C6 (rat glioma); IP 100 mg/kg Daily, day 18",65 (18) %
same,% Inhibition (at day),"C6 (rat glioma); IP 100 mg/kg Three times weekly, day 18",40 (18) %
same,% Inhibition (at day),"C6 (rat glioma); IP 100 mg/kg Twice weekly, day 19",38 (19) %
same,tumor growth inhibition,"C6 (rat glioma); IP 100 mg/kg twice weekly or three times weekly, statistically significant",approximately 40%
same,% Inhibition (at day),"C6 (rat glioma); IP 150 mg/kg Daily X 5 followed by once weekly, day 15",51 (15) %
same,tumor growth inhibited,"C6 (rat glioma); PO 200 mg/kg/day in a Labrasol-containing vehicle, Day 18 post-implantation, compared to vehicle-treated animals",82%
same,mortality,"in vivo [6]; ip, 100 mg/kg/day",12.5%
same,mortality,"in vivo [6]; po, 200 mg/kg/day",10%
same,solubility,physchem; 2% polysorbate-80,< 13 mg/mL
same,solubility,"physchem; 30% peg 300 in buffer, pH 8.2, organic solvent or mixture",32 mg/mL
